Activity, EC50 and Emax data for twelve molecules are collected here from ChEMBL document CHEMBL4138119, “Anti-diabetic activity of fused PPARγ-SIRT1 ligands with limited body-weight gain by mimicking calorie restriction and decreasing SGK1 expression” (Eur J Med Chem, 2017).

In series [1] the test system is Mus musculus. As to the kind of experiment: Anti-diabetic activity in ob/ob mouse assessed as change in serum triglyceride levels at 8.4 uM/kg administered via oral gavage daily for 4 days measured on day 5 relative to control. Type of series: functional.
For series [2], the target named is T1, Peroxisome proliferator-activated receptor gamma (Homo sapiens, UniProt P37231).
T1 sequence (P37231 whole entry): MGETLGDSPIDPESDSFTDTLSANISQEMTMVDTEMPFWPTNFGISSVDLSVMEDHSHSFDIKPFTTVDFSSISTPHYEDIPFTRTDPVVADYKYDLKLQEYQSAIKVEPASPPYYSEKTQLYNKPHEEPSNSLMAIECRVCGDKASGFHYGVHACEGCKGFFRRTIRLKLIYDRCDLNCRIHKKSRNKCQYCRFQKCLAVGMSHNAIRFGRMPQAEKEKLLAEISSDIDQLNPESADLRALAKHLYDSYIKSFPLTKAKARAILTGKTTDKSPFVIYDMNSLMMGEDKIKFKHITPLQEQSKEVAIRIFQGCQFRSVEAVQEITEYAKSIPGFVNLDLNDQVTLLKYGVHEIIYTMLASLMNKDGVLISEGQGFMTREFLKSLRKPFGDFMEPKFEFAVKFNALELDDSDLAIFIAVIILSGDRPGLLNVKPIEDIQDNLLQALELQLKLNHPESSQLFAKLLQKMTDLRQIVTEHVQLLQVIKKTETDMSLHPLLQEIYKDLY
As to the kind of experiment: Transactivation of human Gal4-fused PPARgamma LBD expressed in African green monkey COS7 cells after 24 hrs by luciferase reporter gene assay. The settings on record: for pEC50: read-out: EC50. Type of series: cell-based. (A reporter such as luciferase makes a cellular process visible.)

The test system of series [3] is Mus musculus. Nature of the series: Toxicity in ob/ob mouse assessed as change in body weight at 8.4 uM/kg administered via oral gavage daily for 4 days measured on day 5 relative to control. Conditions: in vivo, 96 h, 8.4 µmol/kg. The format is organism-based.
In series [4] the test system is Mus musculus. Nature of the series: Anti-diabetic activity in ob/ob mouse assessed as change in serum insulin levels at 8.4 uM/kg administered via oral gavage daily for 4 days measured on day 5 relative to control. Type of series: functional.
Series [5] addresses T2, Peroxisome proliferator-activated receptor alpha (Homo sapiens) (UniProt Q07869).
T2 sequence (whole entry): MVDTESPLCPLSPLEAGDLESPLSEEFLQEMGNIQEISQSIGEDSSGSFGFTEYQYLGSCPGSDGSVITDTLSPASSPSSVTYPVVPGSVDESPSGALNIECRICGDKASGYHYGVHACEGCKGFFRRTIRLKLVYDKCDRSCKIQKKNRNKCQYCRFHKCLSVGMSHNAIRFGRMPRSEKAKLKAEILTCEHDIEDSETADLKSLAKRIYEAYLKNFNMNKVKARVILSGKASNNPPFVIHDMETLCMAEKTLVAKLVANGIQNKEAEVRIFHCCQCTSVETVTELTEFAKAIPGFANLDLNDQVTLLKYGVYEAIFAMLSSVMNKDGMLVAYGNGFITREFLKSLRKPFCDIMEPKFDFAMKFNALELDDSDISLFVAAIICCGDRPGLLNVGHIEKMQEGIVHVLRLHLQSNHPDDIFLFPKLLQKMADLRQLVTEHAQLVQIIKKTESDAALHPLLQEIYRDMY
Nature of the series: Transactivation of human Gal4-fused PPARalpha LBD expressed in African green monkey COS7 cells after 24 hrs by luciferase reporter gene assay relative to WY14643. Type of series: cell-based.

In series [6] the target is T3, Peroxisome proliferator-activated receptor delta (Homo sapiens) (UniProt Q03181).
T3 sequence (whole entry): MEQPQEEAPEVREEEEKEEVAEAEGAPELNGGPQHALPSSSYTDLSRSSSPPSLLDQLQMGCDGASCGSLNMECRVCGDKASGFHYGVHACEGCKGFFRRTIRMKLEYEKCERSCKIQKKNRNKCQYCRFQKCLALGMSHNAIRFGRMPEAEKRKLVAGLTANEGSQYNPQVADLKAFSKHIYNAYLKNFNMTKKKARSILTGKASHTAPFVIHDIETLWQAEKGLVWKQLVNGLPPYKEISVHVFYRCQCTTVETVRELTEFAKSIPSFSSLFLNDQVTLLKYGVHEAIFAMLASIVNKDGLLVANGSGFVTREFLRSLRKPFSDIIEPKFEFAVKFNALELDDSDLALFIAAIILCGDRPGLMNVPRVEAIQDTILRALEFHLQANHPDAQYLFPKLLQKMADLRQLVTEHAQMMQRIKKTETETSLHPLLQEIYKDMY
As to the kind of experiment: Transactivation of human PPARdelta at 10 uM.

In series [7] the test system is Mus musculus. As to the kind of experiment: Anti-diabetic activity in ob/ob mouse assessed as change in serum glucose levels at 8.4 uM/kg administered via oral gavage daily for 4 days measured on day 5 relative to control. The format is functional.
The nature of series [8]: Modulation of SGK1 mRNA expression in HCCD cells at 20 uM after 24 hrs by RT-PCR method relative to control. The format is functional, Homo sapiens.
For series [9], the target named is T4, Peroxisome proliferator-activated receptor alpha (Homo sapiens, UniProt Q07869).
T4 sequence (Q07869 whole entry): T2 sequence (whole entry)
As to the kind of experiment: Transactivation of human Gal4-fused PPARalpha LBD expressed in African green monkey COS7 cells after 24 hrs by luciferase reporter gene assay. The format is cell-based.

Series [10] addresses T5, NAD-dependent protein deacetylase sirtuin-1 (Homo sapiens) (UniProt Q96EB6).
T5 sequence (whole entry): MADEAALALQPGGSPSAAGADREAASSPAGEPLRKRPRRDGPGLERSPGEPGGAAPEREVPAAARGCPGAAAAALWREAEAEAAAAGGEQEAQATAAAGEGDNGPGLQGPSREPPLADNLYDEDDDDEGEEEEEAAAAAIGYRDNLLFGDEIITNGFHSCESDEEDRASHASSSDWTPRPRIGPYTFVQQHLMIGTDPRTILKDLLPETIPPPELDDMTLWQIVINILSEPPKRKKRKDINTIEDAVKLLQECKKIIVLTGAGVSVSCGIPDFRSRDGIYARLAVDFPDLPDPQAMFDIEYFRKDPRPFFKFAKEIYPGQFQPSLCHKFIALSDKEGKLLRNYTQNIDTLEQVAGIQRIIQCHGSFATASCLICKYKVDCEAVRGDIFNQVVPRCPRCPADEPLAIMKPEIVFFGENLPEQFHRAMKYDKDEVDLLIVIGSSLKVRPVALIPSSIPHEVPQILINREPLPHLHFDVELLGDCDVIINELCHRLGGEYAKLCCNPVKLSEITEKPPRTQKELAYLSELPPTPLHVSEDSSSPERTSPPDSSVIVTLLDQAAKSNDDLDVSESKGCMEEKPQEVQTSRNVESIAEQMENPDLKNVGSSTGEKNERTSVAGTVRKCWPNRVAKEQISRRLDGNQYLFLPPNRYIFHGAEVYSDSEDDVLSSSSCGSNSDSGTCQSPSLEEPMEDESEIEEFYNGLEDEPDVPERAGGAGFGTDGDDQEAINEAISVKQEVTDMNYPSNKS
Nature of the series: Activation of recombinant human SIRT1 at 10 uM using C-terminal AMC labeled Arg-His-Lys-Lys (Ac) as substrate after 30 mins by FLUOR DE LYS fluorescent assay relative to control.

pEC50: −log10 of the molar value. Activity calls are given as the source filed them. No cut-off for these calls is given here.

By pEC50 is commonly meant the EC50 on a negative log10 scale, so that one unit is a factor of ten. As to `COc1cc(/C=C/C(=O)c2ccc3c(c2)sc(=O)n3CCOc2ccc(CC(OCC(F)(F)F)C(=O)O)cc2)cc(OC)c1` (centres undefined), the Activity with Mus musculus [1] was -18%; in the series on Mus musculus [3], 142%; with Mus musculus [4], 28%; in the series on Mus musculus [7] it was -14%; in series [8], 820%; in series [10], 24%. The pEC50 in series [2] was 6.00; in series [9], 5.00. Besides, the Emax in series [5] came to 36%. For the same molecule, in series [6], the result was inactive.

In the case of `CCOC(=O)C(Cc1ccc(OCCn2c(=O)sc3cc(C(=O)/C=C/c4cc(O)cc(O)c4)ccc32)cc1)OCC` (centres undefined), the Activity with Mus musculus [1] was -28%; with Mus musculus [3], 91%; in the series on Mus musculus [4] it was -4%; in the series with Mus musculus [7], -30%; in series [8] it was 243%; in series [10], 0%. The pEC50 was 7.70 in series [2] and 5.00 in series [9]. Moreover, the Emax in [5] worked out at 42%. The result in series [6] was inactive.

In the case of `CCOC(Cc1ccc(OCCn2c(=O)sc3cc(/C=C/c4cc(O)cc(O)c4)ccc32)cc1)C(=O)O` (centres undefined), the Activity is -52% in the series on Mus musculus [1]; 110% with Mus musculus [3]; -40% in the series with Mus musculus [4]; -45% with Mus musculus [7]; -39% in series [8]; 92% in series [10]. In addition, the values for the pEC50 in series [2] and in series [9] were 6.00 and 5.00, respectively. The Emax in series [5] is 29%. In addition, in series [6], the outcome was inactive.

As to `CCOC(=O)C(Cc1ccc(OCCn2c(=O)sc3cc(/C=C/c4cc(O)cc(O)c4)ccc32)cc1)OCC` (centres undefined), the Activity is -19% in the series with Mus musculus [1]; 49% in the series with Mus musculus [3]; -37% with Mus musculus [4]; -35% in the series with Mus musculus [7]; 134% in series [8]; 59% in series [10]. Besides, the values for the pEC50 in [2] and in [9] were 8.00 and 5.00, respectively. For the same molecule, the Emax in [5] came to 76%. In addition, the result in series [6] was inactive.

As to `CCOC(Cc1ccc(OCCn2c(=O)sc3cc(/C=C/c4cc(OC)cc(OC)c4)ccc32)cc1)C(N)=O` (centres undefined), the Activity in the series with Mus musculus [1] was -32%; in the series on Mus musculus [3], 158%; in the series with Mus musculus [4], -26%; in the series with Mus musculus [7] it was -27%; in series [8] it was -43%; in series [10], -12%. Also, the pEC50 in series [2] was over 8.00; in series [9] it was 6.00. The molecule further gave an Emax in [5] of 35%. In addition, the outcome in series [6] was inactive.

As to `CCOC(=O)C(Cc1ccc(OCCn2c(=O)sc3cc(/C=C/c4cc(O)cc(O)c4)ccc32)cc1)OCC(F)(F)F` (centres undefined), the Activity with Mus musculus [1] was -25%; in the series with Mus musculus [3], 56%; in the series with Mus musculus [4] it was -41%; in the series on Mus musculus [7], -40%; in series [8], 83%; in series [10], -28%. In addition, the pEC50 in [2] was 7.10; in series [9], 5.00. The Emax in series [5] was found to be 149%. Further, in series [6], the outcome was inactive.

With `Cc1cccc(Nc2cc(Cl)nc(SCC(=O)O)n2)c1C` [PIRINIXIC ACID], the EC50 entry in series [2] was “Not Active”.

As for `COc1cc(/C=C/c2ccc3c(c2)sc(=O)n3CCOc2ccc(CC(OCC(F)(F)F)C(=O)O)cc2)cc(OC)c1` (centres undefined), the Activity is -23% in the series on Mus musculus [1]; 81% with Mus musculus [3]; -61% in the series with Mus musculus [4]; -36% in the series with Mus musculus [7]; 89% in [8]; -4% in series [10]. For the same molecule, the values for the pEC50 in [2] and in series [9] were 7.70 and 6.52, respectively. The same molecule gave an Emax in series [5] of 170%. Further, the outcome in [6] was inactive.

With `CCOC(=O)C(Cc1ccc(OCCn2c(=O)sc3cc(/C=C/c4cc(OC)cc(OC)c4)ccc32)cc1)OCC` (centres undefined), the Activity in the series with Mus musculus [1] was -35%; in the series on Mus musculus [3], 79%; with Mus musculus [4], -28%; in the series on Mus musculus [7], -36%; in series [8], -23%; in [10] it was 13%. Moreover, the negative logarithm of the EC50 (pEC50) was over 8.00 in series [2] and 5.70 in series [9]. The Emax in [5] came to 149%. Further, the result in [6] was inactive.

`CCOC(=O)C(Cc1ccc(OCCn2c(=O)sc3cc(/C=C/c4cc(OC)cc(OC)c4)ccc32)cc1)OCC(F)(F)F` (centres undefined): the Activity in the series with Mus musculus [1] was -3%; with Mus musculus [3], 61%; in the series on Mus musculus [4], -14%; with Mus musculus [7], -11%; in series [8], -62%; in [10], -7%. The pEC50 was 7.30 in series [2] and 5.00 in series [9]. The Emax in series [5] is 136%. Moreover, the outcome in series [6] was inactive.

With `O=C(O)C(Cc1ccc(OCCn2c(=O)sc3cc(/C=C/c4cc(O)cc(O)c4)ccc32)cc1)OCC(F)(F)F` (centres undefined), the Activity in the series on Mus musculus [1] is -39%; with Mus musculus [3], 32%; in the series with Mus musculus [4], -43%; with Mus musculus [7], -40%; in [8], -57%; in series [10], 128%. For the same molecule, the pEC50 was 6.70 in [2] and 5.00 in [9]. The molecule further showed an Emax in series [5] of 100%. Also, the result in series [6] was inactive.

In the case of `CCOC(Cc1ccc(OCCn2c(=O)sc3cc(/C=C/c4cc(OC)cc(OC)c4)ccc32)cc1)C(=O)O` (centres undefined), the Activity is -56% in the series on Mus musculus [1], 192% in the series with Mus musculus [3], -33% with Mus musculus [4] and -42% in the series with Mus musculus [7]. Besides, the pEC50 in [2] is over 8.00; in [9] it was 6.00. Moreover, the Emax in [5] is 494%. In addition, in series [6], the result was inactive.
